What was measured:
[1] = test system: CSF-infiltrating CD4+ T cells from MS patients; conditions: peptide 10 μM; 105 MS patients, quadruplicates; well positive if IFN-γ≥20 pg/ml
Method: 6×10^4 PHA-expanded CSF-infiltrating CD4^+ T cells were seeded in quadruplicate with 2×10^5 irradiated autologous PBMCs as antigen presenting cells and stimulated with peptides (Table 2) at a final concentration of 10 μM and with a T Cell Activation Kit (anti-CD3, anti-CD28, anti-CD2 beads) (Miltenyi Biotec) as positive control.
(§1) Release of IFN-γ was measured using the ELISA MAX™ Deluxe Set Human IFN-γ (Biolegend, San Diego, CA, USA) according to the manufacturer's instructions. A well was considered positive if IFN-γ≥20 pg/ml and a patient was considered positive for a peptide if the mean IFN-γ of the four wells was ≥20 pg/ml and at least 3 of the 4 wells were positive.

[2] = test system: CSF-infiltrating CD4+ T cells from MS patients; conditions: peptide 10 μM, 105 MS patients; for Positive wells % Proliferation: quadruplicates (420 wells per peptide), well positive if SI≥2, 72 h; for Positive patients % Proliferation: patient positive if mean SI of four wells ≥2 and at least 3 of four wells SI≥2
Method: CSF-infiltrating CD4+ T cells were expanded with PHA in a single round of stimulation using a previously reported protocol aimed to reduce TCR repertoire bias (Planas et al., 2008, Sci Transl Med, 10(462):eaat4301). 6×10^4 PHA-expanded CSF-infiltrating CD4^+ T cells were seeded in quadruplicate with 2×10^5 irradiated autologous PBMCs as antigen presenting cells and stimulated with peptides (Table 2) at a final concentration of 10 μM and with a T Cell Activation Kit (anti-CD3, anti-CD28, anti-CD2 beads) (Miltenyi Biotec) as positive control.
(§2) Proliferation was measured 72 h after stimulation using 3H-thymidine (Hartmann Analytic, Braunschweig, Germany) as previously reported (Planas et al., 2018). The stimulation index of single wells (SI) was calculated as follows: SI=(cpm well with peptide)/(Mean cpm wells without peptide). A well was considered positive if SI≥2.

[3] = test system: CSF-infiltrating CD4+ T cells from MS patients; assay: Reactivity of CSF-infiltrating CD4+ T cells by proliferation and/or IFN-γ release taken together (responder classification, comparison of readouts); conditions: of 105 MS patients; main or only reactivity in proliferation and/or IFN-γ release
Method: PBMCs were freshly isolated using Ficoll (Eurobio, Germany) density gradient centrifugation. CSF-infiltrating CD4+ T cells were expanded with PHA in a single round of stimulation using a previously reported protocol aimed to reduce TCR repertoire bias (Planas et al., 2008, Sci Transl Med, 10(462):eaat4301). 6×10^4 PHA-expanded CSF-infiltrating CD4^+ T cells were seeded in quadruplicate with 2×10^5 irradiated autologous PBMCs as antigen presenting cells and stimulated with peptides (Table 2) at a final concentration of 10 μM and with a T Cell Activation Kit (anti-CD3, anti-CD28, anti-CD2 beads) (Miltenyi Biotec) as positive control.
as §2, §1

| Sequence | Positive wells % IFNγ release [1] [%] | Positive wells % Proliferation [2] [%] | Positive patients % Proliferation [2] [%] | Patients classified as responders to the peptide(s) [3] [%] |
| --- | --- | --- | --- | --- |
| AQGTLSKIFKLGGRDSRSGSPMARR (listed as Homo sapiens) [MBP (146-170)] | 3.86 | 0.72 | 0.00 | – |
| EEDEVSIKEAAEAVV (listed as Homo sapiens) [GDP-L-FS (246-260)] | 8.85 | 6.90 | 4.76 | – |
| FRFTPFKQAVKETCA (listed as Homo sapiens) [GDP-L-FS (296-310)] | 12.65 | 6.43 | 4.76 | – |
| GQFRVIGPRHPIRALVGDEV (listed as Homo sapiens) [MOG (1-20)] | 4.58 | 1.20 | 0.00 | – |
| HCLGKWLGHPDKFVGI (listed as Homo sapiens) [PLP (139-154)] | 3.86 | 1.92 | 0.96 | – |
| KYLATASTMDHARHGFLPRH (listed as Homo sapiens) [MBP (13-32)] | 4.34 | 0.72 | 0.00 | – |
| LSRFSWGAEGQRPGFGYGG (listed as Homo sapiens) [MBP (111-129)] | 6.75 | 1.20 | 0.96 | – |
| MEVGWYRPPFSRVVHLYRNGK (listed as Homo sapiens) [MOG (35-55)] | 13.49 | 3.61 | 1.92 | 10.4 |
| PHNSNFGYSYAKRMI (listed as Homo sapiens) [GDP-L-FS (136-150)] | 8.35 | 7.14 | 5.71 | – |
| TAQTRALFEKVQPTH (listed as Homo sapiens) [GDP-L-FS (51-65)] | 7.16 | 5.48 | 3.80 | – |
| YGCTFTAVIPTNVFG (listed as Homo sapiens) [GDP-L-FS (161-175)] | 6.92 | 7.38 | 6.66 | – |
